Reference: patent publication US11725011B2, “Bicyclic urea kinase inhibitors and uses thereof” (The Broad Institute, Inc., priority 2016, dated 2023)

Assays:
[1] = molecular target: SIK3 (Homo sapiens (Human), UniProt Q9Y2K2); assay: Percent activity against SIK3 at 1 μM; format: biochemical
[2] = molecular target: ABL1 (F317I)-phosphorylated (Homo sapiens (Human), UniProt P00519, F317I); assay: KINOMEscan; format: binding; conditions: 1 uM
[3] = molecular target: ASK2 (Homo sapiens (Human), UniProt O95382); assay: KINOMEscan; format: binding; conditions: 1 uM
[4] = molecular target: CAMK2B (Homo sapiens (Human), UniProt Q13554); assay: KINOMEscan; format: binding; conditions: 1 uM
[5] = molecular target: CDK4-cyclinD1 (Homo sapiens (Human), UniProt P11802); assay: KINOMEscan; format: binding; conditions: 1 uM
[6] = molecular target: CHEK1 (Homo sapiens (Human), UniProt O14757); assay: KINOMEscan; format: binding; conditions: 1 uM
[7] = molecular target: CLK4 (Homo sapiens (Human), UniProt Q9HAZ1); assay: KINOMEscan; format: binding; conditions: 1 uM
CLK4, sequence (Q9HAZ1 whole entry): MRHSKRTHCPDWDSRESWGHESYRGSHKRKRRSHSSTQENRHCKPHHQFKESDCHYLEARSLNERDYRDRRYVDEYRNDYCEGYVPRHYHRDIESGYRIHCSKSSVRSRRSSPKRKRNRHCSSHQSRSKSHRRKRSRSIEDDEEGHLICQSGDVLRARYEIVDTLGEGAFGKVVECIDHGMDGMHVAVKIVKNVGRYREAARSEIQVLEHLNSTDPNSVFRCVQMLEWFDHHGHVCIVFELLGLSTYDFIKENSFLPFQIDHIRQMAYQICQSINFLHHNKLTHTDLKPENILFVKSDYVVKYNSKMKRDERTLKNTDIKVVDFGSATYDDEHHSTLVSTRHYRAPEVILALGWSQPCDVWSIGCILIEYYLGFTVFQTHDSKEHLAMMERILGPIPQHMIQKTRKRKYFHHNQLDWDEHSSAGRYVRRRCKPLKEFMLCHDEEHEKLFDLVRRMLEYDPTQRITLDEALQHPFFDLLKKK

[8] = molecular target: CSNK2A2 (Homo sapiens (Human), UniProt P19784); assay: KINOMEscan; format: binding; conditions: 1 uM
[9] = molecular target: DRAK2 (Homo sapiens (Human), UniProt O94768); assay: KINOMEscan; format: binding; conditions: 1 uM
[10] = molecular target: EIF2AK1 (Homo sapiens (Human), UniProt Q9BQI3); assay: KINOMEscan; format: binding; conditions: 1 uM
[11] = molecular target: EPHA1 (Homo sapiens (Human), UniProt P21709); assay: KINOMEscan; format: binding; conditions: 1 uM
[12] = molecular target: ERBB4 (Homo sapiens (Human), UniProt Q15303); assay: KINOMEscan; format: binding; conditions: 1 uM
[13] = molecular target: FLT3 (Homo sapiens (Human), UniProt P36888); assay: KINOMEscan; format: binding; conditions: 1 uM
[14] = molecular target: HIPK3 (Homo sapiens (Human), UniProt Q9H422); assay: KINOMEscan; format: binding; conditions: 1 uM
[15] = molecular target: HPK1 (Homo sapiens (Human), UniProt Q92918); assay: KINOMEscan; format: binding; conditions: 1 uM
[16] = molecular target: IKK-alpha (Homo sapiens (Human), UniProt O15111); assay: KINOMEscan; format: binding; conditions: 1 uM
[17] = molecular target: INSR (Homo sapiens (Human), UniProt P06213); assay: KINOMEscan; format: binding; conditions: 1 uM
[18] = molecular target: MAP3K3 (Homo sapiens (Human), UniProt Q99759); assay: KINOMEscan; format: binding; conditions: 1 uM
[19] = molecular target: MAP3K4 (Homo sapiens (Human), UniProt Q9Y6R4); assay: KINOMEscan; format: binding; conditions: 1 uM
[20] = molecular target: MLK3 (Homo sapiens (Human), UniProt Q16584); assay: KINOMEscan; format: binding; conditions: 1 uM
MLK3, sequence (Q16584 whole entry): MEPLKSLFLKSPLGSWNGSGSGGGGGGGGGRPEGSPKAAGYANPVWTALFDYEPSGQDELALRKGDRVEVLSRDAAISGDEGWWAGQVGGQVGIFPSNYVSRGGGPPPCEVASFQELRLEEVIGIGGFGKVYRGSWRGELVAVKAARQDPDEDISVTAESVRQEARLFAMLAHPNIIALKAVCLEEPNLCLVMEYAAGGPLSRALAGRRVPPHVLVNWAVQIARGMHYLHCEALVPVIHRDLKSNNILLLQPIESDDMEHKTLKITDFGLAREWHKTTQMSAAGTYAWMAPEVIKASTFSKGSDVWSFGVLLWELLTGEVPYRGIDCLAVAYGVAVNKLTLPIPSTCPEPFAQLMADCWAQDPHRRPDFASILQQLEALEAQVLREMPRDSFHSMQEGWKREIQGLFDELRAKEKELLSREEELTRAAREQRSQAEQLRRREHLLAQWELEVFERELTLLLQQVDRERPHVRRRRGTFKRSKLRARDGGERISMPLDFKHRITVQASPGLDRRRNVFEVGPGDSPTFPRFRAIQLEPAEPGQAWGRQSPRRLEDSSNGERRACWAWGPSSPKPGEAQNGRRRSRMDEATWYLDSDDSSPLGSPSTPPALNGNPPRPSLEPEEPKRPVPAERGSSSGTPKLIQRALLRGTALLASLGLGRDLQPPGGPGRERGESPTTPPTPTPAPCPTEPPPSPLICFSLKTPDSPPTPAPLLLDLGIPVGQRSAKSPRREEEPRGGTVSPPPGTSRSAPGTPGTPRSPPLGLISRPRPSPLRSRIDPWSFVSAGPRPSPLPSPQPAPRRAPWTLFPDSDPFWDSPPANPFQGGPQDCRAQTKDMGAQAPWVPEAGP

[21] = molecular target: MYO3B (Homo sapiens (Human), UniProt Q8WXR4); assay: KINOMEscan; format: binding; conditions: 1 uM
[22] = molecular target: NDR1 (Homo sapiens (Human), UniProt Q15208); assay: KINOMEscan; format: binding; conditions: 1 uM
[23] = molecular target: PAK6 (Homo sapiens (Human), UniProt Q9NQU5); assay: KINOMEscan; format: binding; conditions: 1 uM
[24] = molecular target: PHKG2 (Homo sapiens (Human), UniProt P15735); assay: KINOMEscan; format: binding; conditions: 1 uM
[25] = molecular target: PIK3CA (M1043I) (Homo sapiens (Human), UniProt P42336, M1043I); assay: KINOMEscan; format: binding; conditions: 1 uM
[26] = molecular target: PIK3CA (Q546K) (Homo sapiens (Human), UniProt P42336, Q546K); assay: KINOMEscan; format: binding; conditions: 1 uM
[27] = molecular target: PIM1 (Homo sapiens (Human), UniProt P11309); assay: KINOMEscan; format: binding; conditions: 1 uM
[28] = molecular target: PIP5K2C (Homo sapiens (Human), UniProt Q8TBX8); assay: KINOMEscan; format: binding; conditions: 1 uM
PIP5K2C, sequence (Q8TBX8 whole entry): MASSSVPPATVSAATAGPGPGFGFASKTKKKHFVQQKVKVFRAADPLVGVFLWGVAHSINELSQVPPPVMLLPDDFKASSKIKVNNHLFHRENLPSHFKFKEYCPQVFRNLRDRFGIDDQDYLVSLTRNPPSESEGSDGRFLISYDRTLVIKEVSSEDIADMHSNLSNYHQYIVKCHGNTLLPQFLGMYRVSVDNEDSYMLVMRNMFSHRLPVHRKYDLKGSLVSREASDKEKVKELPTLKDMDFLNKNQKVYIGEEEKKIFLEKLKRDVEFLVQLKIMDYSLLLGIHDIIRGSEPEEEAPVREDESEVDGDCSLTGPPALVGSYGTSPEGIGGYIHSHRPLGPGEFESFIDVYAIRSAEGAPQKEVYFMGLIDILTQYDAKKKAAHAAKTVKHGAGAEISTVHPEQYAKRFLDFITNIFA

[29] = molecular target: PKMYT1 (Homo sapiens (Human), UniProt Q99640); assay: KINOMEscan; format: binding; conditions: 1 uM
[30] = molecular target: PLK1 (Homo sapiens (Human), UniProt P53350); assay: KINOMEscan; format: binding; conditions: 1 uM
[31] = molecular target: PRP4 (Homo sapiens (Human), UniProt Q13523); assay: KINOMEscan; format: binding; conditions: 1 uM
[32] = molecular target: QSK (Homo sapiens (Human), UniProt Q9Y2K2); assay: KINOMEscan; format: binding; conditions: 1 uM
QSK, sequence (Q9Y2K2 whole entry): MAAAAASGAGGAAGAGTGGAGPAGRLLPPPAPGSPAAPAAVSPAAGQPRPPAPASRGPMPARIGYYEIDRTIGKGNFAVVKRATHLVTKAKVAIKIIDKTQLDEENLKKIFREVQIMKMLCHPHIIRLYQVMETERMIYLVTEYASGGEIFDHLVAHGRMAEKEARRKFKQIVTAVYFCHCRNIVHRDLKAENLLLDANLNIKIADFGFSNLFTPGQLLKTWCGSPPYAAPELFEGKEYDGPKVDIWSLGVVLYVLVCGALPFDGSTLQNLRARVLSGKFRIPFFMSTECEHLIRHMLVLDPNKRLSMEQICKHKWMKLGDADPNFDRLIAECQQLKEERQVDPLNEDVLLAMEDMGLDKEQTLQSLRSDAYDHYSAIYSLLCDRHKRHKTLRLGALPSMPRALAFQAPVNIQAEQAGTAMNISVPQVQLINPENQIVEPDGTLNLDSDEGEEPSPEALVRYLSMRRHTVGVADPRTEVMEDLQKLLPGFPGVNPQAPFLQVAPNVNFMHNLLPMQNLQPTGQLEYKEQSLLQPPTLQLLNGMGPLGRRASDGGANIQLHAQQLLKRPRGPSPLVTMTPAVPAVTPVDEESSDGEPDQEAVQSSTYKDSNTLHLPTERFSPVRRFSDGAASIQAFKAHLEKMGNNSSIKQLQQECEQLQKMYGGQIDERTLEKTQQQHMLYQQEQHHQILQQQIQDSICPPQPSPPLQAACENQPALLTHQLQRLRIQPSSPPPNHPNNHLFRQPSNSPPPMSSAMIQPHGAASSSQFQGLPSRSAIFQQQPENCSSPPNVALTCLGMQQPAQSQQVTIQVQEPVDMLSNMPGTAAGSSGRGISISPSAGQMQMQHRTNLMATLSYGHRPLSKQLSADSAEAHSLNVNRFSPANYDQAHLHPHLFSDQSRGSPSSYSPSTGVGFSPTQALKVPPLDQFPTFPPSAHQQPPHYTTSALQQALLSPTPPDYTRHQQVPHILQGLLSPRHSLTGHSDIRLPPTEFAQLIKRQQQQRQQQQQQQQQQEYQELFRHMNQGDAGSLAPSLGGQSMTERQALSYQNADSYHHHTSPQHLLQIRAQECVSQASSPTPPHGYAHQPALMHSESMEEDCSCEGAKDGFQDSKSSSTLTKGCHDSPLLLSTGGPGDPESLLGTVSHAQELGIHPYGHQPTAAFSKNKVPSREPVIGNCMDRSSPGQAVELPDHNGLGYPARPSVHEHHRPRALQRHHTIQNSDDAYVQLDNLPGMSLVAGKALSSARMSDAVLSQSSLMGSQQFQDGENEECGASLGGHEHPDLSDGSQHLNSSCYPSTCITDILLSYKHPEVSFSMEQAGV

[33] = molecular target: RIOK2 (Homo sapiens (Human), UniProt Q9BVS4); assay: KINOMEscan; format: binding; conditions: 1 uM
[34] = molecular target: RIOK3 (Homo sapiens (Human), UniProt O14730); assay: KINOMEscan; format: binding; conditions: 1 uM
[35] = molecular target: ROCK1 (Homo sapiens (Human), UniProt Q13464); assay: KINOMEscan; format: binding; conditions: 1 uM
[36] = molecular target: RPS6KA5 (Kin.Dom.1-N-terminal) (Homo sapiens (Human), UniProt O75582); assay: KINOMEscan; format: binding; conditions: 1 uM
[37] = molecular target: RSK3 (Kin.Dom.2-C-terminal) (Homo sapiens (Human), UniProt Q15349); assay: KINOMEscan; format: binding; conditions: 1 uM
RSK3 (Kin.Dom.2-C-terminal), sequence (Q15349 415-672): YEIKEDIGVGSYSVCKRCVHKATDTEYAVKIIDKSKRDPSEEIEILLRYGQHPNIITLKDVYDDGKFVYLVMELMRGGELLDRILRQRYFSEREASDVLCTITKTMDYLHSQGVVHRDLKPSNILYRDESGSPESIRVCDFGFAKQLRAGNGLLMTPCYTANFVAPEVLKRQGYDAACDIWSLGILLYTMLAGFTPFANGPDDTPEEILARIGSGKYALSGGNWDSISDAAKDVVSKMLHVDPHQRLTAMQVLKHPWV

[38] = molecular target: SLK (Homo sapiens (Human), UniProt Q9H2G2); assay: KINOMEscan; format: binding; conditions: 1 uM
[39] = molecular target: SNARK (Homo sapiens (Human), UniProt Q9H093); assay: KINOMEscan; format: binding; conditions: 1 uM
[40] = molecular target: SRPK3 (Homo sapiens (Human), UniProt Q9UPE1); assay: KINOMEscan; format: binding; conditions: 1 uM
SRPK3, sequence (Q9UPE1 whole entry): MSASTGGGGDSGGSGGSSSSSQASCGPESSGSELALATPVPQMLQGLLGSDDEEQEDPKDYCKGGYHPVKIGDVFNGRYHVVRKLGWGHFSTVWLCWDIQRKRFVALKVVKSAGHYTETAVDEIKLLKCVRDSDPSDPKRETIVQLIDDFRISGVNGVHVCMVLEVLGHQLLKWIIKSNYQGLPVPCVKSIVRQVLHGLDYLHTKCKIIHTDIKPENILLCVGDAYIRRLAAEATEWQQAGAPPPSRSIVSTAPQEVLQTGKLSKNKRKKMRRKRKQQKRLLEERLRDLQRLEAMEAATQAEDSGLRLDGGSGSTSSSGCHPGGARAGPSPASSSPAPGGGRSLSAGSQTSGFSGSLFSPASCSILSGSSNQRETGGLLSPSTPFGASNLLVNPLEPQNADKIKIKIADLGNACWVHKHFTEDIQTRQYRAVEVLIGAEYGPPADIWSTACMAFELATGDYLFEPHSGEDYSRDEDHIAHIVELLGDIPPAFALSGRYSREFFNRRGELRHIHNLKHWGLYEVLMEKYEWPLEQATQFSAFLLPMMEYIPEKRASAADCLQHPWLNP

[41] = molecular target: TXK (Homo sapiens (Human), UniProt P42681); assay: KINOMEscan; format: binding; conditions: 1 uM

SIK3, sequence (Q9Y2K2 whole entry): as the sequence (Q9Y2K2 whole entry) above
ABL1 (F317I)-phosphorylated, sequence (P00519 whole entry F317I): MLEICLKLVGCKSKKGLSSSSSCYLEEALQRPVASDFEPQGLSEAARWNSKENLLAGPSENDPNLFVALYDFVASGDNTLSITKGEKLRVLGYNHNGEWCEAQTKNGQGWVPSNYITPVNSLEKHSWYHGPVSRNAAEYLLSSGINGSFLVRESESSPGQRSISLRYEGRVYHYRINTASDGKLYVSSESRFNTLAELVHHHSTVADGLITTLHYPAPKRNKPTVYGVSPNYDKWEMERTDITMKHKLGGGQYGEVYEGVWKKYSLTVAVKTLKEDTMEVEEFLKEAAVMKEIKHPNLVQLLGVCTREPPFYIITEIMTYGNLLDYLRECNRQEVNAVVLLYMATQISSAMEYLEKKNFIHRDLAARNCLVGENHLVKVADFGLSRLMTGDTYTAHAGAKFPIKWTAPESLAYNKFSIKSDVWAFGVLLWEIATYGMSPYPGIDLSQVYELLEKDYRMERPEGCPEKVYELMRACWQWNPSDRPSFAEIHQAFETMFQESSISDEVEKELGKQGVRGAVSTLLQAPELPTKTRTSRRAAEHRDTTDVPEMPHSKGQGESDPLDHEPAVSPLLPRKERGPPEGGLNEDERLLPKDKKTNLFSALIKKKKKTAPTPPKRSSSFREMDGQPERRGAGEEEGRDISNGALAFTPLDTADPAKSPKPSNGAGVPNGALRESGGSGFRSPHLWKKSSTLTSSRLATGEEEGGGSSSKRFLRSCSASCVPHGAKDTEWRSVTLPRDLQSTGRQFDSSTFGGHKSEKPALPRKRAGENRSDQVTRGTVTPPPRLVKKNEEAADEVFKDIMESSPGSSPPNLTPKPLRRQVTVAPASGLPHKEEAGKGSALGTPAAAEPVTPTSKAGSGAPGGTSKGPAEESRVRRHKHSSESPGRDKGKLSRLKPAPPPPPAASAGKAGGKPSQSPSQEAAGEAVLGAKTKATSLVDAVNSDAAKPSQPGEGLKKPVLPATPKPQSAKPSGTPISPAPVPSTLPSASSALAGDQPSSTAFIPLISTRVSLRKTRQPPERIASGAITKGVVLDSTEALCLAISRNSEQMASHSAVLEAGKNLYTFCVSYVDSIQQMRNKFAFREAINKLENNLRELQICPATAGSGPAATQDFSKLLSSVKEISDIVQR

COc1ccc(N2C(=O)N(c3c(C)cccc3C)Cc3cnc(Nc4ccc(N5CCN(C)CC5)cc4)nc32)c(OC)c1 [HG-11-136-01]
Enzyme activity at 1 μM (%) SIK3 ([1]; 1 μM): 9%
SIK3 % ACTIVITY ([1]; compound at 1 μM, approximate Km for ATP): 9%
KINOMEscan ABL1 (F317I)-phosphorylated [2]: 1.3
KINOMEscan ASK2 [3]: 46
KINOMEscan CAMK2B [4]: 90
KINOMEscan CDK4-cyclinD1 [5]: 9
KINOMEscan CHEK1 [6]: 82
KINOMEscan CLK4 [7]: 33
KINOMEscan CSNK2A2 [8]: 0.05
KINOMEscan DRAK2 [9]: 100
KINOMEscan EIF2AK1 [10]: 93
KINOMEscan EPHA1 [11]: 0
KINOMEscan ERBB4 [12]: 0.2
KINOMEscan FLT3 [13]: 34
KINOMEscan HIPK3 [14]: 2.6
KINOMEscan HPK1 [15]: 0.95
KINOMEscan IKK-alpha [16]: 99
KINOMEscan INSR [17]: 48
KINOMEscan MAP3K3 [18]: 0.1
KINOMEscan MAP3K4 [19]: 16
KINOMEscan MLK3 [20]: 28
KINOMEscan MYO3B [21]: 29
KINOMEscan NDR1 [22]: 46
KINOMEscan PAK6 [23]: 37
KINOMEscan PHKG2 [24]: 93
KINOMEscan PIK3CA (M1043I) [25]: 64
KINOMEscan PIK3CA (Q546K) [26]: 94
KINOMEscan PIM1 [27]: 100
KINOMEscan PIP5K2C [28]: 100
KINOMEscan PKMYT1 [29]: 42
KINOMEscan PLK1 [30]: 60
KINOMEscan PRP4 [31]: 100
KINOMEscan QSK [32]: 0.25
KINOMEscan RIOK2 [33]: 87
KINOMEscan RIOK3 [34]: 25
KINOMEscan ROCK1 [35]: 81
KINOMEscan RPS6KA5 (Kin.Dom.1-N-terminal) [36]: 100
KINOMEscan RSK3 (Kin.Dom.2-C-terminal) [37]: 67
KINOMEscan SLK [38]: 0.1
KINOMEscan SNARK [39]: 0.4
KINOMEscan SRPK3 [40]: 70
KINOMEscan TXK [41]: 0.25
